Reference: patent publication US20220184222A1, “BICYCLE TOXIN CONJUGATES AND USES THEREOF” (BicycleTx Limited, priority 2019, published 2022)
Starred links: 1 amine or outer side, 2 acyl side, 3 side chain; linkers in the order of their positions; H or OH if unused. Non-standard residues stand in square brackets, D forms with d. Residues, ends and D or L forms follow the SMILES beside them. *: point of attachment. Dolaproine = CO[C@@H]([C@@H]1CCCN1)[C@@H](C)C(=O)O; Dil = CC[C@H](C)[C@H](NC)[C@@H](CC(=O)O)OC; PABC = O=C(OCc1ccc(N[*:1])cc1)[*:2]; X1 = O=C(CCCC(=O)*)ON1C(=O)CCC1=O; X2 = C[C@@H](N*)[C@@H](O)c1ccccc1; Cit = NC(=O)NCCC[C@H](N)C(=O)O; NMeV = CN[C@H](C(=O)O)C(C)C

What was measured:
CTG-0170 = test: Champions TumorGraft NSCLC PDX efficacy, model CTG-0170; assay type: in vivo, Mus musculus
Procedure: (§1) Mice were implanted subcutaneously into the left flank with tumor fragments from one of the various models. After tumors grew to an average of 150-300 mm^3, mice were treated by IV administration Q7Dx4 (n=2) with vehicle or 3 mg/kg of BT5528. Effects on tumor growth were evaluated by measuring percent tumor growth inhibition (% TGI), and the number of complete responders (CR), partial responders (PR), and tumor-free survivors (TFS). Tolerability was assessed by body weight loss, lethality, and clinical signs of adverse treatment-related side effects. Tumor volumes and body weights were measured twice a week.
(§2) Dosing solutions of BT5528 […] were pre-formulated. These dosing solutions were stored at −80° C. in the dark. On each day of dosing, a frozen aliquot of each test agent was thawed, stored at 2-8° C. and used for dosing.
(§3) The animals used in this study are described below: • Species: Mus musculus • Strain: Athymic Nude-Foxn1^nu (immune-compromised) • Source: Envigo (Indianapolis, Ind., USA) • Number of animals per group: 2 • Age and sex: At least 6-8 weeks of age at start of dosing, female • Weight: At least 18 grams at start of dosing • Acclimation period: 3 days
(§4) Stock mice were implanted with tumor cells from Champions TumorGraft® models CTG-0160, CTG-0170, CTG-0178, CTG-0192, CTG-0363, CTG-0808, CTG-0838, CTG-0848, CTG-1212, CTG-1502, CTG-1535, CTG-2011, CTG-2393, CTG-2539 or CTG-2540. After the tumors reached 1000-1500 mm^3, they were harvested and the tumor fragments (approximately 5×5×5 mm^3) were implanted SC in the left flank of the female study mice. Each animal was implanted with a specific passage lot and documented. Tumor growth was monitored twice a week using digital calipers and the tumor volume (TV) was calculated using the formula (0.52×[length×width^2]). When the TV reached an average volume of 150-300 mm^3, animals were matched by tumor size and assigned into Vehicle Control and treatment groups (n=2/group) and dosing was initiated on Day 0. After the initiation of dosing on Day 0, animals were weighed twice per week using a digital scale and TV was measured twice per week and also on the final day of study. The study was completed when the mean tumor volume of Vehicle Control reached 1500 mm^3 or up to Day 60, whichever occurred first.
(§5) Beginning on Day 0, animals were observed daily and weighed twice weekly using a digital scale; data including individual and mean gram weights, mean percent weight change versus Day 0 (% vD0) were recorded for each group and % vD0 plotted at study completion. […] Treatment resulting in a mean % vD0>20% and/or >10% mortality was considered above the maximum tolerated dose. Maximum mean % vD0 (weight nadir) for each treatment group was reported at study completion.
(§6) Inhibition of tumor growth was determined by calculating the percent TGI (100%×[1−(final MTV−initial MTV of a treated group)/(final MTV−initial MTV of the control group)]). Treatment started on Day 0.
(§7) Additional endpoints used to evaluate efficacy were: the number of complete responders (CR), partial responders (PR), and tumor-free survivors (TFS). PRs were considered exclusive of CRs, as were TFS.
(§8) Statistical analyses of anti-tumor efficacy were performed using one-way ANOVA followed by Dunnett's multiple comparisons test (GraphPad Prism version 8.2.0). Significant p-values=<0.05.
Animals were dosed according to the schedule on Table 7-1. The Vehicle Control group reached endpoint of average tumor volume >1500 mm^3 on Day 14 and was removed from the study. The study was terminated on Day 28. […] Therefore, the tumor volumes on Day 11 were used for analysis of anti-tumor activity in order to include all animals.

CTG-2393 = test: Champions TumorGraft NSCLC PDX efficacy, model CTG-2393; assay type: in vivo, Mus musculus
Procedure: as §1, §2, §3, §4, §5, §6, §7, §8
Animals were dosed according to the schedule on Table 7-1. The study was terminated on Day 28.

CTG-1535 = test: Champions TumorGraft NSCLC PDX efficacy, model CTG-1535; assay type: in vivo, Mus musculus
Procedure: Mice were implanted subcutaneously into the left flank with tumor fragments from one of the various models. […] Effects on tumor growth were evaluated by measuring percent tumor growth inhibition (% TGI), and the number of complete responders (CR), partial responders (PR), and tumor-free survivors (TFS). Tolerability was assessed by body weight loss, lethality, and clinical signs of adverse treatment-related side effects. Tumor volumes and body weights were measured twice a week.
as §2, §3, §4, §5, §6, §7, §8
Animals were dosed according to the schedule on Table 7-1. The study was terminated on Day 35.

Panc033 = test: PDAC PDX Panc033 xenograft efficacy (Example 5); assay type: in vivo, NSG mice; settings: 3 mg/kg intravenously weekly, 4-week treatment period
Procedure: BT5528 and Vehicle were prepared as described in the examples above, and tested in treatment of Pancreatic Ductal Adenocarcinoma (PDAC) in PDX models. PDX models effectively capture patient responses to oncology therapy in a heterogeneous cohort of patients with solid tumors with 80-100% correlation between the PDX and patient response (Izumchenko et al. 2017)
Pancreatic ductal adenocarcinoma patient derived xenograft tumors (PDAC PDX; Panc033 and Panc163) were implanted subcutaneously from source tumors into the flank of NSG mice. Tumor bearing animals were randomized to receive intravenously a weekly dosing of vehicle or 3 mg/kg BT5528. Tumor sizes were monitored by caliper measurements.

[1] = CTG-0170, 3 mg/kg IV Q7Dx4, Day 0-28
[2] = CTG-2393, 3 mg/kg IV Q7Dx4, Day 0-28
[3] = CTG-1535, 3 mg/kg IV Q7Dx5, Day 0-35

CC[C@H](C)[C@@H]([C@@H](CC(=O)N1CCC[C@H]1[C@H](OC)[C@@H](C)C(=O)N[C@H](C)[C@@H](O)c1ccccc1)OC)N(C)C(=O)[C@@H](NC(=O)[C@H](C(C)C)N(C)C(=O)OCc1ccc(NC(=O)[C@H](CCCNC(N)=O)NC(=O)[C@@H](NC(=O)CCCC(=O)ON2C(=O)CCC2=O)C(C)C)cc1)C(C)C [BT5528] (X1-V[Cit][PABC][NMeV]V[Dil][Dolaproine]-X2)
body weight and tolerability of the other animal in the group (CTG-0170; 3 mg/kg IV Q7Dx4): no body weight loss and tolerated the BT5528 well | prior body weight loss of the animal found dead on Day 14 (CTG-0170; 3 mg/kg IV Q7Dx4): 24.8% | MTV (mean tumor volume) (CTG-0170; 3 mg/kg IV Q7Dx4, Day 11): 268±15 mm^3 | TGI (CTG-0170; 3 mg/kg IV Q7Dx4, Day 11): 94% | animals found dead (CTG-0170; 3 mg/kg IV Q7Dx4, n=2, cause of death unknown): one animal in the BT5528 group was found dead on Day 14 | # CR (complete responders) (CTG-0170; [1]): 0/0/0 | # PR (partial responders) (CTG-0170; [1]): 0/0/0 | # TFS (tumor-free survivors) (CTG-0170; [1]): 0/0/0 | % TGI (CTG-0170; CTG-0170, 3 mg/kg IV Q7Dx4, Day 11): 94% | Day 11 Tumor Volume Mean TV ± SEM (CTG-0170; CTG-0170, BT5528 3 mg/kg IV Q7Dx4, Day 11, n=2): 268 ± 15 mm^3 | MTV (mean tumor volume) (CTG-2393; 3 mg/kg IV Q7Dx4, Day 28): 158±25 mm^3 | TGI (CTG-2393; 3 mg/kg IV Q7Dx4, Day 28): 107% | # CR (complete responders) (CTG-2393; [2]): 0/0/0 | # PR (partial responders) (CTG-2393; [2]): 0/0/0 | # TFS (tumor-free survivors) (CTG-2393; [2]): 0/0/0 | % TGI (CTG-2393; CTG-2393, 3 mg/kg IV Q7Dx4, Day 28): 107% | Day 28 Tumor Volume Mean TV ± SEM (CTG-2393; CTG-2393, BT5528 3 mg/kg IV Q7Dx4, Day 28, n=2): 158 ± 25 mm^3 | MTV (mean tumor volume) (CTG-1535; 3 mg/kg IV Q7Dx5, Day 35): 307±91 mm^3 | TGI (CTG-1535; 3 mg/kg IV Q7Dx5, Day 35): 85% | # CR (complete responders) (CTG-1535; [3]): 0/0/0 | # PR (partial responders) (CTG-1535; [3]): 0/0/0 | # TFS (tumor-free survivors) (CTG-1535; [3]): 0/0/0 | % TGI (CTG-1535; CTG-1535, 3 mg/kg IV Q7Dx5, Day 35): 85% | Day 35 Tumor Volume Mean TV ± SEM (CTG-1535; CTG-1535, BT5528 3 mg/kg IV Q7Dx5, Day 35, n=2): 307 ± 91 mm^3 | anti-tumor activity (tumor size by caliper) (Panc033): significant anti-tumor activity from reduced tumor growth rate to decreasing tumor volumes
